Assay type in all cases: biochemical
The target of assay [1] is T1, MMP-1 (interstitial collagenase) (Homo sapiens, UniProt P03956).
T1 sequence (P03956 100-469): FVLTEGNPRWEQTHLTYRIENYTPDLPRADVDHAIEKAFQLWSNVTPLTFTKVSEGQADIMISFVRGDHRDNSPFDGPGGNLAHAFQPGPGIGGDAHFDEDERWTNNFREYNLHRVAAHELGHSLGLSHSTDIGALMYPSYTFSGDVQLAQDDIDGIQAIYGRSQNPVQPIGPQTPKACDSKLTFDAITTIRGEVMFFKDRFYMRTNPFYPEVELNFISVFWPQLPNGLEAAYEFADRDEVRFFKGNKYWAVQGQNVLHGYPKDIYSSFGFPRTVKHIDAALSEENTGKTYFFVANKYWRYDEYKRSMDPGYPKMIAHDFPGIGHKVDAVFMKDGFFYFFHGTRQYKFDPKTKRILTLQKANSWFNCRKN
The assay is described as follows: inhibition of MMP-1 hydrolysis of thiopeptolide substrate. As to conditions: pH 6.0, 22° C. From the text:
(§1) The invention compounds have been evaluated in standard in vitro assays and shown to be potent inhibitors of several matrix metalloproteinase enzymes.

The next assay deals with T2, MMP-2 (Gelatinase A) (Homo sapiens, UniProt P08253).
T2 sequence (P08253 110-660): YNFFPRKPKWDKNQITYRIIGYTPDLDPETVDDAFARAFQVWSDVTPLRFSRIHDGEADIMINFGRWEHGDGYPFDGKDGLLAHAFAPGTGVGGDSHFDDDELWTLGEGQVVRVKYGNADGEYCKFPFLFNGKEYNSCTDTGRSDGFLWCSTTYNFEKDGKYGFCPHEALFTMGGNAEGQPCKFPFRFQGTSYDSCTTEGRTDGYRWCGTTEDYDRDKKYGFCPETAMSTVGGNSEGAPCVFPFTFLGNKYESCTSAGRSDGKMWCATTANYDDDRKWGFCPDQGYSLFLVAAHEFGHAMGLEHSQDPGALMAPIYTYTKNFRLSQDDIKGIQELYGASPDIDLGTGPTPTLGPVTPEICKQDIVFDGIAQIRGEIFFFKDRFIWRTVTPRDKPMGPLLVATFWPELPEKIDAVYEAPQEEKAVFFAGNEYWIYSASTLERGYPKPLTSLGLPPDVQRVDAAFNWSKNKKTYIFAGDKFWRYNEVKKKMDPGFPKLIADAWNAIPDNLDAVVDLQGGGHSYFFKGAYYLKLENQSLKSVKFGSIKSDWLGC
As to the kind of experiment: inhibition of MMP-2 hydrolysis of thiopeptolide substrate.

The target in a further assay is MMP-3 (stromelysin) (Homo sapiens, UniProt P08254). As to the kind of experiment: inhibition of MMP-3 hydrolysis of thiopeptolide substrate. From the text:
The assays measure the amount by which a test compound reduces the hydrolysis of a thiopeptolide substrate caused by a matrix metalloproteinase enzyme. Such assays are described in detail by Ye, et al., in Biochemistry, 1992;31(45):11231-11235).
Thiopeptolide substrates show virtually no decomposition or hydrolysis in the absence of a matrix metalloproteinase enzyme. A typical thiopeptolide substrate commonly utilized for assays is Ac-Pro-Leu-Gly-thioester-Len-Len-Gly-O Et. […] Assays are carried out with and without matrix metalloproteinase inhibitor compounds, and the amount of hydrolysis is compared for a determination of inhibitory activity of the test compounds.
In the table, MMP-1 refers to interstitial collagenase; MMP-2 refers to Gelatinase A; MMP-3 refers to stromelysin; MMP-7 refers to matrilysin; and MMP-13 refers to Collagenase 3.

The target of a further assay is MMP-13 (Collagenase 3) (Homo sapiens, UniProt P45452). As to the kind of experiment: inhibition of MMP-13 hydrolysis of thiopeptolide substrate.
Text: as §1

Setting [2] is: thiopeptolide substrate, pH 6.0, 22° C., read-out: (IC50) MMP-2.
Setting [3] is: thiopeptolide substrate, pH 6.0, 22° C., read-out: (IC50) MMP-3.
Where [4] appears, read: thiopeptolide substrate, pH 6.0, 22° C., read-out: (IC50) MMP-13.

In patent US6020366A, “Butyric acid matrix metalloproteinase inhibitors” (priority 1998, dated 2000) one finds IC50 data, which are given here for 24 compounds.

The structures appear in SMILES notation. Read-outs that look alike come from different tables or passages of the source.

The IC50 is the concentration at which inhibition is half-maximal.

MMP-3 (stromelysin), sequence (P08254 100-477): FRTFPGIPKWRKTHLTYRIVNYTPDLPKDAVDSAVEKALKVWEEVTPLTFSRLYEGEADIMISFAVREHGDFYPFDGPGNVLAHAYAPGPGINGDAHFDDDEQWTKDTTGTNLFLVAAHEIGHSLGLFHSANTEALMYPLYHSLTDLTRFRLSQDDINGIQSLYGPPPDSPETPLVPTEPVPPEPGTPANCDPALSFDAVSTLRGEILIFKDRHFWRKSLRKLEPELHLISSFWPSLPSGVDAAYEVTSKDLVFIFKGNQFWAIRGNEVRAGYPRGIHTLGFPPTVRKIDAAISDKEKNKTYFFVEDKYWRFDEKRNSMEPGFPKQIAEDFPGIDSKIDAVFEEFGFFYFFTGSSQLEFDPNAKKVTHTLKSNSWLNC

Consider `Cc1ccc(S(=O)(=O)N[C@@H](CC(=O)c2ccc3oc4ccccc4c3c2)C(=O)O)cc1` [Example 14, (S) -4-Dibenzofuran-2-yl-4-oxo-2-(4-methylphenylsulfonylamino)-butyric acid], for which the IC50 in assay [1] is 83 µM; on MMP-2 (Gelatinase A) (setting [2]), 17 nM; at MMP-3 (stromelysin) (setting [3]) it was 260 nM; on MMP-13 (Collagenase 3) (setting [4]), 1.1 µM.
With `CC(Oc1ccccc1)C(=O)NC(CC(=O)c1ccc2oc3ccccc3c2c1)C(=O)O` (centres unmarked) [Example 30, 4-Dibenzofuran-2-yl-4-oxo-2-(2-phenoxy-propionylamino)-butyric acid], the IC50 in assay [1] came to 45 µM; at MMP-2 (Gelatinase A) (setting [2]), 35 nM; at MMP-3 (stromelysin) (setting [3]) it was 100 nM; at MMP-13 (Collagenase 3) (setting [4]) it was 2.9 µM.
Regarding `O=C(CC(NC(=O)c1sccc1Cl)C(=O)O)c1ccc2oc3ccccc3c2c1` (centres unmarked) [Example 36, 2-[(3-Chloro-thiophene-2-carbonyl)-amino)-4-dibenzofuran-2-yl-4-oxo-butyric acid], the IC50 at MMP-2 (Gelatinase A) (setting [2]) turned out to be 140 nM; at MMP-3 (stromelysin) (setting [3]), 1000 nM; at MMP-13 (Collagenase 3) (setting [4]), 13 µM.
For the compound `O=C(Cc1cccs1)NC(CC(=O)c1ccc2oc3ccccc3c2c1)C(=O)O` (centres unmarked) [Example 52, 4-Dibenzofuran-2-yl-4-oxo-2-(2-thiophen-2-yl-acetylamino)-butyric acid], the values for the IC50 at MMP-2 (Gelatinase A) (setting [2]), at MMP-3 (stromelysin) (setting [3]) and at MMP-13 (Collagenase 3) (setting [4]) were 2500 nM, 7700 nM and 48 µM, respectively.
In the case of `CCCCCCCC(=O)N[C@@H](CC(=O)c1ccc2oc3ccccc3c2c1)C(=O)O` [Example 11, (S)-4-Dibenzofuran-2-yl-4-oxo-2-(octanoylamino)-butyric acid], the IC50 at MMP-2 (Gelatinase A) (setting [2]) was 360 nM; at MMP-3 (stromelysin) (setting [3]), 2700 nM; at MMP-13 (Collagenase 3) (setting [4]) it was 6.8 µM.
The like results for `O=C(COCc1ccccc1)NC(CC(=O)c1ccc2oc3ccccc3c2c1)C(=O)O` (centres unmarked) [Example 32, 2-(2-Benzyloxy-acetylamino)-4-dibenzofuran-2-yl-4-oxo-butyric acid] were, in that order, 41 nM, 330 nM and 3.5 µM.
The like results for `COc1ccc(C(=O)NC(CC(=O)c2ccc3oc4ccccc4c3c2)C(=O)O)cc1` (centres unmarked) [Example 46, 4-Dibenzofuran-2-yl-2-(4-methoxy-benzoylamino)-4-oxo-butyric acid] were, in that order, 140 nM, 1000 nM and 11 µM.
For the compound `O=C(CC(NC(=O)C(F)(F)C(F)(F)C(F)(F)C(F)(F)C(F)(F)C(F)(F)C(F)(F)F)C(=O)O)c1ccc2oc3ccccc3c2c1` (centres unmarked) [Example 27, 4-Dibenzofuran-2-yl-4-oxo-2-(2,2,3,3,4,4,5,5,6,6,7,7,8,8,8-pentadecafluoro-octanoylamino)-butyric acid], the IC50 turned out to be 4600 nM on MMP-2 (Gelatinase A), 18000 nM on MMP-3 (stromelysin) and 77 µM on MMP-13 (Collagenase 3).
Consider `CCCCCCC(=O)NC(CC(=O)c1ccc2oc3ccccc3c2c1)C(=O)O` (centres unmarked) [Example 33, 4-Dibenzofuran-2-yl-2-heptanoylamino-4-oxo-butyric acid], for which the IC50 on MMP-2 (Gelatinase A) (setting [2]) is 60 nM; at MMP-3 (stromelysin) (setting [3]), 640 nM; at MMP-13 (Collagenase 3) (setting [4]), 4.7 µM.
`O=C(COc1ccc(Cl)cc1)NC(CC(=O)c1ccc2oc3ccccc3c2c1)C(=O)O` (centres unmarked) [Example 19, 2-[2-(4-Chloro-phenoxy)-acetylamino]-4-dibenzofuran-2-yl-4-oxo-butyric acid]: the IC50 on MMP-2 (Gelatinase A) (setting [2]) stood at 640 nM; on MMP-3 (stromelysin) (setting [3]), 3100 nM; at MMP-13 (Collagenase 3) (setting [4]), 46 µM.
The corresponding values for `N#Cc1ccc(C(=O)NC(CC(=O)c2ccc3oc4ccccc4c3c2)C(=O)O)cc1` (centres unmarked) [Example 35, 2-(4-Cyano-benzoylamino)-4-dibenzofuran-2-yl-4-oxo-butyric acid] are 110 nM, 1100 nM and 11 µM.
As for `O=C(CCc1ccccc1)N[C@@H](CC(=O)c1ccc2oc3ccccc3c2c1)C(=O)O` [Example 8, (S)-4-Dibenzofuran-2-yl-4-oxo-2-(3-phenylpropionylamino)-butyric acid], the half-inhibitory concentration (IC50) was determined as 67 nM on MMP-2 (Gelatinase A) (setting [2]), 290 nM on MMP-3 (stromelysin) (setting [3]) and 1.3 µM on MMP-13 (Collagenase 3) (setting [4]).
For the compound `CCCCOc1ccc(C(=O)NC(CC(=O)c2ccc3oc4ccccc4c3c2)C(=O)O)cc1` (centres unmarked) [Example 37, 2-(4-Butoxy-benzoylamino)-4-dibenzofuran-2-yl-4-oxo-butyric acid], the IC50 came to 800 nM on MMP-2 (Gelatinase A) (setting [2]), 5000 nM at MMP-3 (stromelysin) (setting [3]) and 58 µM on MMP-13 (Collagenase 3) (setting [4]).
As to `O=C(CC(NC(=O)c1ccc(Cl)c(Cl)c1)C(=O)O)c1ccc2oc3ccccc3c2c1` (centres unmarked) [Example 20], the IC50 at MMP-2 (Gelatinase A) (setting [2]) is 1300 nM; at MMP-3 (stromelysin) (setting [3]), 7000 nM; on MMP-13 (Collagenase 3) (setting [4]) it was 38 µM.
As for `CCCC(C)(C)C(=O)NC(CC(=O)c1ccc2oc3ccccc3c2c1)C(=O)O` (centres unmarked) [Example 23, 4-Dibenzofuran-2-yl-2-(2,2-dimethyl-pentanoylamino)-4-oxo-butyric acid], the IC50 at MMP-2 (Gelatinase A) (setting [2]) is 170 nM; at MMP-3 (stromelysin) (setting [3]), 760 nM; at MMP-13 (Collagenase 3) (setting [4]), 5.6 µM.
The corresponding values for `O=C(CC(NC(=O)c1ccc(C(F)(F)F)cc1)C(=O)O)c1ccc2oc3ccccc3c2c1` (centres unmarked) [Example 48, 4-Dibenzofuran-2-yl-4-oxo-2-(4-trifluoromethyl-benzoylamino)-butyric acid] are 320 nM, 1500 nM and 20 µM.
The like results for `COc1ccc(C(=O)NC(CC(=O)c2ccc3oc4ccccc4c3c2)C(=O)O)cc1OC` (centres unmarked) [Example 47, 4-Dibenzofuran-2-yl-2-(3,4-dimethoxy-benzoylamino)-4-oxo-butyric acid] were, in that order, 130 nM, 870 nM and 8.8 µM.
The corresponding values for `O=C(CC(NC(=O)c1ccc2c(c1)OCO2)C(=O)O)c1ccc2oc3ccccc3c2c1` (centres unmarked) [Example 53, 2-[(Benzo[1,3)dioxole-5-carbonyl)-amino]-4-dibenzofuran-2-yl-4-oxo-butyric acid] are 130 nM, 1000 nM and 9.2 µM.
On to `O=C(CC(NC(=O)c1cccs1)C(=O)O)c1ccc2oc3ccccc3c2c1` (centres unmarked) [Example 51, 4-Dibenzofuran-2-yl-4-oxo-2-[(thiophene-2-carbonyl)-amino]-butyric acid], for which the results for the IC50 at MMP-2 (Gelatinase A) (setting [2]), on MMP-3 (stromelysin) (setting [3]) and at MMP-13 (Collagenase 3) (setting [4]) were 160 nM, 1300 nM and 16 µM, respectively.
The like results for `O=C(CC(NC(=O)c1ccc(F)cc1)C(=O)O)c1ccc2oc3ccccc3c2c1` (centres unmarked) [Example 43, 4-Dibenzofuran-2-yl-2-(4-fluoro-benzoylamino)-4-oxo-butyric acid] were, in that order, 70 nM, 660 nM and 7.1 µM.
The like results for `O=C(CC(NC(=O)C1CCCC1)C(=O)O)c1ccc2oc3ccccc3c2c1` (centres unmarked) [Example 49, 2-(Cyclopentanecarbonyl-amino)-4-dibenzofuran-2-yl-4-oxo-butyric acid] were, in that order, 80 nM, 350 nM and 4.4 µM.
The corresponding values for `O=C(CC(NC(=O)C1CC1)C(=O)O)c1ccc2oc3ccccc3c2c1` (centres unmarked) [Example 38, 2-(Cyclopropanecarbonyl-amino)-4-dibenzofuran-2-yl-4-oxo-butyric acid] are 90 nM, 850 nM and 5.6 µM.
Consider `COc1ccc(CC(=O)NC(CC(=O)c2ccc3oc4ccccc4c3c2)C(=O)O)cc1OC` (centres unmarked) [Example 21, 4-Dibenzofuran-2-yl-2-[2-(3,4-dimethoxy-phenyl)-acetylamino] -4-oxo-butyric acid], for which the IC50 on MMP-2 (Gelatinase A) (setting [2]) turned out to be 320 nM; at MMP-3 (stromelysin) (setting [3]) it was 2400 nM; at MMP-13 (Collagenase 3) (setting [4]), 16 µM.
The like results for `O=C(CCCc1ccc(Br)cc1)NC(CC(=O)c1ccc2oc3ccccc3c2c1)C(=O)O` (centres unmarked) [Example 31, 2-[4-(4-Bromo-phenyl)-butyrylamino]-4-dibenzofuran-2-yl-4-oxo-butyric acid] were, in that order, 600 nM, 5300 nM and 25 µM.
